# Measurements published in patent publication US10889849B2, “Oxidized glutathione assay” (PROMEGA CORPORATION, priority 2010, dated 2021).
# Experiments:
# equine GST (Sigma) = assay: Two step luminescent test of GST-3 as GST substrate, equine GST; format: biochemical
# Procedure: (§1) In the first step, GST-3 was added to a mixture containing a GST enzyme with or without glutathione. At different times after reaction initiation, a portion of the reaction was mixed with a luciferase reaction mixture. Reactions in which light production increased over time indicate that the derivative, GST-3, is a substrate for GST and can be used in an assay to detect GST and/or reduced glutathione (GSH).
# (§2) Various GST enzyme forms were used to test the use of GST-3 as a substrate for GST to detect GST or GSH. All components except for the GST enzyme were added.
# porcine GST (Sigma) = assay: Two step luminescent test of GST-3 as GST substrate, porcine GST; format: biochemical
# Procedure: as §1, §2
# S. japonica GST (Sigma) = target: T1, S. japonica GST (Sigma) (Schistosoma japonicum, UniProt P08515); assay: Two step luminescent test of GST-3 as GST substrate, S. japonica GST; format: biochemical
# T1 construct: purchased Sigma
# T1 sequence (P08515 whole entry): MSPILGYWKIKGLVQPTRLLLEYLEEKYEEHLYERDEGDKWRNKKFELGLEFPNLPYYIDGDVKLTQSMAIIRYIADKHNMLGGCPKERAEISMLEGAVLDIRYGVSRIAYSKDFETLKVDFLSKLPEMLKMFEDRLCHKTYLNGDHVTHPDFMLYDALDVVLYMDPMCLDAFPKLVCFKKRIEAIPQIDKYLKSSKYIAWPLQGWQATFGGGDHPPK
# Procedure: as §1, §2
# [1] = Two step luminescent test of GST-3, reactions without GST enzyme; format: biochemical
# Procedure: as §1, §2
# GST (Promega) = target: T2, GST (Promega) (Schistosoma japonicum, UniProt P08515); assay: GSSG measurement with other luciferin derivatives (luminescence); format: biochemical; conditions: GSSG 0.0 μM, luminescence without GSSG subtracted
# T2 construct: purchased Promega
# T2 sequence (P08515 whole entry): as above
# Procedure: Oxidized glutathione was serially diluted from a 10 mM stock in water to 0, 0.1, 0.5 and 2.5 uM into three different 96-well luminometer plates with duplicate reactions performed. A 30 μl sample of the GST 30 stock was diluted to 3 ml with GSH Glo Reaction Buffer (Promega), and 25 μl added to one of the plates (“30”). A 30 μl sample of GST 28 was diluted to 3 ml with GSH Glo Reaction Buffer, and 25 μl added to a second plate (“28”). A 110 μL sample of GST-22 was diluted to 3 ml with GSH Glo Reaction Buffer, and 25 μl added to the third plate (“GST-22” or “NT”). 50 μl of GSH Glo Reaction Buffer was then added to half the samples of each plate. 25 μl GSH Glo Reaction Buffer with DTT (150 μl of 100 mM DTT to 15 ml of GSH Glo Reaction Buffer) was added to the other half of the samples in each of the plates.
# A 60 μl sample of GST (Promega) was diluted to 1 ml with GSH Glo Reaction Buffer, and 50 μl added to duplicate columns of each plate. […] The resulting luminescence was collected, and the duplicates averaged. The luminescence measured in the absence of GSSG was subtracted from that of the three GSSG concentrations, and the resulting values are presented in Table 6.
# [2] = target: T3, GST (Promega Corp. V689B) (Schistosoma japonicum, UniProt P08515); assay: Fluorescent detection of glutathione using Coumarin derivatives, GST from Promega; format: biochemical; conditions: images at 1, 3, 5 and 20 minutes post GST enzyme addition
# T3 construct: purchased Promega Corp. V689B
# Procedure: (§3) A Prionex® solution was made by mixing 200 μl of 10% Prionex® (Sigma) with 9.8 ml of 10 mM potassium phosphate buffer, pH 7.4, and 75 μl added to all wells of a 96-well, microtiter plate (“sample plate”). Stock solutions (2 mg/ml) of the GST enzymes GST (Promega Corp. V689B), GST A, GST B, and GST P (purified to have less than 1 mole of GSH per mole of protein) were diluted by addition of 12 ul of the enzyme to 150 ul of 10 mM Potassium Phosphate buffer pH 7.4/Prionex solution. These diluted stocks were then added to the wells. 75 ul of the diluted stocks were added to the wells in row A, and 75 ul transferred from row A through to row H to generate 1:1 serially diluted enzyme solutions.
# (§4) To a different, 96-well microtiter plate, 25 μl of diluted PBI 4153 (25 μl 1 mg/ml solution of PBI 4153 with 5 ml of 10 mM potassium phosphate pH 7.4) was added to wells A1-H10 of the plate (“4153”). […]
# (§5) If one or more of the GST enzyme forms can catalyze the Coumarin compound in the presence of glutathione, the samples containing a GST enzyme form will have an increase in fluorescence. The better the GST enzyme form can utilize the Coumarin derivative, the more rapid the increase in fluorescence, and the lower the concentrations of GST enzyme needed to be able to produce a substantial increase in fluorescence over time.
# GST M = assay: Fluorescent detection of glutathione using Coumarin derivatives, GST M; format: biochemical; conditions: images at 1, 3, 5 and 20 minutes post GST enzyme addition
# [3] = Fluorescent detection using Coumarin derivatives, control wells with only buffer (no GST); format: biochemical; conditions: reduced glutathione present, 1, 3, 5 and 20 minutes
# Procedure: as §3, §4, §5
# GST P = GST P (Homo sapiens, UniProt P09211); assay: Fluorescent detection of glutathione using Coumarin derivatives, GST P; format: biochemical; conditions: images at 1, 3, 5 and 20 minutes post GST enzyme addition
# Chain of GST P (P09211 whole entry): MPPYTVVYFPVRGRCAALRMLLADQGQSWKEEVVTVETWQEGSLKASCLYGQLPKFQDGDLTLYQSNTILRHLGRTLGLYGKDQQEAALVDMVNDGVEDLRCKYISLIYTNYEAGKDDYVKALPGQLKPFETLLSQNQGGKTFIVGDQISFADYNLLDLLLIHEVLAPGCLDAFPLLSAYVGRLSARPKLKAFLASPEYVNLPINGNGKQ
# Procedure: as §3, §4, §5
# GST A = assay: Fluorescent detection of glutathione using Coumarin derivatives, GST A; format: biochemical; conditions: images at 1, 3, 5 and 20 minutes post GST enzyme addition
# Procedure: as §3, §4, §5
# [4] = numerous reports (Srivastava et al. 2010); leading to cell death by apoptosis or necrosis; cited from earlier work
smiles,measurement,setting,value
"O=C(O)[C@H]1CSC(c2ccc3cc(Oc4ccc(C(F)(F)F)cc4[N+](=O)[O-])ccc3n2)=N1 [GST-3, 6-(2 nitro-4-trifluoromethyl-phenoxy)quinolinyl-luciferin]",Luminescence values (RLUs),"equine GST (Sigma); reaction 7: equine GST, no glutathione, 0.1 minutes",30.42 RLUs
same,Luminescence values (RLUs),"equine GST (Sigma); reaction 7: equine GST, no glutathione, 5 minutes",32.98 RLUs
same,Luminescence values (RLUs),"equine GST (Sigma); reaction 7: equine GST, no glutathione, 10 minutes",38.75 RLUs
same,Luminescence values (RLUs),"equine GST (Sigma); reaction 7: equine GST, no glutathione, 15 minutes",38.39 RLUs
same,Luminescence values (RLUs),"equine GST (Sigma); reaction 8: equine GST with glutathione, 0.1 minutes",252.2 RLUs
same,Luminescence values (RLUs),"equine GST (Sigma); reaction 8: equine GST with glutathione, 5 minutes",3662 RLUs
same,Luminescence values (RLUs),"equine GST (Sigma); reaction 8: equine GST with glutathione, 10 minutes",7629 RLUs
same,Luminescence values (RLUs),"equine GST (Sigma); reaction 8: equine GST with glutathione, 15 minutes",9324 RLUs
same,Luminescence values (RLUs),"porcine GST (Sigma); reaction 5: porcine GST, no glutathione, 0.1 minutes",46.95 RLUs
same,Luminescence values (RLUs),"porcine GST (Sigma); reaction 5: porcine GST, no glutathione, 5 minutes",51.85 RLUs
same,Luminescence values (RLUs),"porcine GST (Sigma); reaction 5: porcine GST, no glutathione, 10 minutes",51.15 RLUs
same,Luminescence values (RLUs),"porcine GST (Sigma); reaction 5: porcine GST, no glutathione, 15 minutes",48.41 RLUs
same,Luminescence values (RLUs),"porcine GST (Sigma); reaction 6: porcine GST with glutathione, 0.1 minutes",71.1 RLUs
same,Luminescence values (RLUs),"porcine GST (Sigma); reaction 6: porcine GST with glutathione, 5 minutes",269.1 RLUs
same,Luminescence values (RLUs),"porcine GST (Sigma); reaction 6: porcine GST with glutathione, 10 minutes",463.2 RLUs
same,Luminescence values (RLUs),"porcine GST (Sigma); reaction 6: porcine GST with glutathione, 15 minutes",619.3 RLUs
same,Luminescence values (RLUs),"S. japonica GST (Sigma); reaction 3: S. japonica GST, no glutathione, 0.1 minutes",32.67 RLUs
same,Luminescence values (RLUs),"S. japonica GST (Sigma); reaction 3: S. japonica GST, no glutathione, 5 minutes",32.42 RLUs
same,Luminescence values (RLUs),"S. japonica GST (Sigma); reaction 3: S. japonica GST, no glutathione, 10 minutes",38.65 RLUs
same,Luminescence values (RLUs),"S. japonica GST (Sigma); reaction 3: S. japonica GST, no glutathione, 15 minutes",33.82 RLUs
same,Luminescence values (RLUs),"S. japonica GST (Sigma); reaction 4: S. japonica GST with glutathione, 0.1 minutes",32.57 RLUs
same,Luminescence values (RLUs),"S. japonica GST (Sigma); reaction 4: S. japonica GST with glutathione, 5 minutes",40.79 RLUs
same,Luminescence values (RLUs),"S. japonica GST (Sigma); reaction 4: S. japonica GST with glutathione, 10 minutes",48.64 RLUs
same,Luminescence values (RLUs),"S. japonica GST (Sigma); reaction 4: S. japonica GST with glutathione, 15 minutes",61.54 RLUs
same,Luminescence values (RLUs),"[1]; reaction 1: no GST, no glutathione, 0.1 minutes",33.26 RLUs
same,Luminescence values (RLUs),"[1]; reaction 1: no GST, no glutathione, 5 minutes",38.2 RLUs
same,Luminescence values (RLUs),"[1]; reaction 1: no GST, no glutathione, 10 minutes",32.17 RLUs
same,Luminescence values (RLUs),"[1]; reaction 1: no GST, no glutathione, 15 minutes",35.53 RLUs
same,Luminescence values (RLUs),"[1]; reaction 2: no GST, with glutathione, 0.1 minutes",35.72 RLUs
same,Luminescence values (RLUs),"[1]; reaction 2: no GST, with glutathione, 5 minutes",36.07 RLUs
same,Luminescence values (RLUs),"[1]; reaction 2: no GST, with glutathione, 10 minutes",40.85 RLUs
same,Luminescence values (RLUs),"[1]; reaction 2: no GST, with glutathione, 15 minutes",46.43 RLUs
"Cc1ccc(S(=O)(=O)Oc2ccc3nc(C4=N[C@@H](C(=O)O)CS4)sc3c2)c([N+](=O)[O-])c1 [GST-22, Luciferin 2-nitro-4-methylbenzenesulfonate]","Luminescence, GST with DTT",GST (Promega); GST with DTT,0
same,"Luminescence, No DTT",GST (Promega); without enzyme and DTT,0
same,"Luminescence, With DTT",GST (Promega); without enzyme but with DTT,0
Cc1cc(=O)oc2cc(OS(=O)(=O)c3ccc([N+](=O)[O-])cc3)ccc12 [PBI 4146],Utilization of the Coumarin compound (increase in fluorescence),[2],"can also utilize the compound, but at an even slower rate than GST M"
same,Utilization of the Coumarin compound (increase in fluorescence),GST M,can rapidly utilize the Coumarin compound
same,Increase in fluorescence in control wells,[3],no apparent increase in fluorescence
same,Utilization of the Coumarin compound (increase in fluorescence),GST P,"either did not utilize this compound or utilized it at very, very slow rate"
same,Utilization of the Coumarin compound (increase in fluorescence),GST A,"either did not utilize this compound or utilized it at very, very slow rate"
Cc1cc(=O)oc2cc(OS(=O)(=O)c3ccc([N+](=O)[O-])c4ccccc34)ccc12 [PBI 4153],Utilization of the Coumarin compound (increase in fluorescence),[2],also utilized the compound but at an even slower rate than GST A
same,Utilization of the Coumarin compound (increase in fluorescence),GST M,can rapidly utilize the Coumarin compound as a substrate
same,Increase in fluorescence in control wells,[3],no apparent increase in fluorescence
same,Utilization of the Coumarin compound (increase in fluorescence),GST P,"either did not utilize this compound or utilized it at a very, very slow rate"
same,Utilization of the Coumarin compound (increase in fluorescence),GST A,"can also utilize the compound, but at a slower rate"
CC(=O)Nc1ccc(O)cc1 [acetaminophen],Effect on the ratio of GSH to GSSG,[4],dramatically reduce the ratio of GSH to GSSG
NNC(=O)c1ccncc1 [isoniazid],Effect on the ratio of GSH to GSSG,[4],dramatically reduce the ratio of GSH to GSSG
CC/C(=C(\c1ccccc1)c1ccc(OCCN(C)C)cc1)c1ccccc1 [tamoxifen],Effect on the ratio of GSH to GSSG,[4],dramatically reduce the ratio of GSH to GSSG
